Literature values as cited in patent US20110150946A1 (priority 2008, published 2011).

Conditions: sublingual apomorphine 4 mg per patient

With `CN1CCc2cccc3c2[C@H]1Cc1ccc(O)c(O)c1-3` [apomorphine, 5,6,6a,7-tetrahydro-6-methyl-4H-dibenzo[de, g]quinoline-10,11-diol] as the compound, how does the nausea incidence read?
Its nausea incidence is 14.1%.
